The values that follow come from ChEMBL document CHEMBL1137565, “Discovery of novel 8-azoniabicyclo[3.2.1]octane carbamates as muscarinic acetylcholine receptor antagonists” (Bioorg Med Chem Lett, 2007).

The target in test [1] is T1, Muscarinic acetylcholine receptor M1 (Homo sapiens, UniProt P11229).
T1 sequence (P11229 whole entry): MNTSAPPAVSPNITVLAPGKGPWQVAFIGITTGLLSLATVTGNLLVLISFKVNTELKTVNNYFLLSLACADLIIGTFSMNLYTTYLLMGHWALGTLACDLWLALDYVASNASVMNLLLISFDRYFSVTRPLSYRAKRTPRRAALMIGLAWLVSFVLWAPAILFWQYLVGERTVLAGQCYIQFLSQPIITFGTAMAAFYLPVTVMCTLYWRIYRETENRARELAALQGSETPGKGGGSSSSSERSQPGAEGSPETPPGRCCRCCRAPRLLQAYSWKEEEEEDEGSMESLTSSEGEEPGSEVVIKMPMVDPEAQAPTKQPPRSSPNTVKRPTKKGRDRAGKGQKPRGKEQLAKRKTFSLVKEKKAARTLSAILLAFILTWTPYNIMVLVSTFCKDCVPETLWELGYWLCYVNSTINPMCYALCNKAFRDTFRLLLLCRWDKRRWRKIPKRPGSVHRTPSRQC
Description: Antagonist activity at cloned muscarinic M1 receptor expressed in CHO cells by measuring calcium mobilization. The class given is functional, cell-based. On the technique in general: A change in cytosolic calcium serves as a functional read-out for many receptors and channels.

Test [2] has as its target Muscarinic acetylcholine receptors; M2 & M3 (Homo sapiens) (UniProt P20309+P08172). Put plainly: Selectivity for cloned muscarinic M3 receptor over cloned muscarinic M2 receptor.
For test [3], the target named is T2, Muscarinic acetylcholine receptor M2 (Homo sapiens, UniProt P08172).
T2 sequence (P08172 whole entry): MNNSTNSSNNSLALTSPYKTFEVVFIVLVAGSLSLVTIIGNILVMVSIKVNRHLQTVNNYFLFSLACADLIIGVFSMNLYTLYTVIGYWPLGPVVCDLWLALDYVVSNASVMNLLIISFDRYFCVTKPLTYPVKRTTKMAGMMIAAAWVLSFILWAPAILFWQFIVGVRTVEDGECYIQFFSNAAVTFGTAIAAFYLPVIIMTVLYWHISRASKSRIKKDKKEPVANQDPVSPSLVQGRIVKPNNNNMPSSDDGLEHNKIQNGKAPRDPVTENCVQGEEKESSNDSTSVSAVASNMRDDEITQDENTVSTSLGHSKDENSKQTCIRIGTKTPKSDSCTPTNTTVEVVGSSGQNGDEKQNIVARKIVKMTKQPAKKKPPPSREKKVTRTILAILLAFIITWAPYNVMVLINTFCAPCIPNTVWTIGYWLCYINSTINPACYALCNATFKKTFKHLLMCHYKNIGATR
Put plainly: Antagonist activity at cloned muscarinic M2 receptor expressed in CHO cells by measuring calcium mobilization. The format is functional, cell-based.

For test [4], the species on record is Mus musculus. Description: Effect on metacholine-induced bronchoconstriction in mouse assessed as bronchoprotection at 5 ug after 5 hrs. The class given is functional.
In test [5] the target is Muscarinic acetylcholine receptor M3 (Homo sapiens, UniProt P20309). Put plainly: Antagonist activity at cloned muscarinic M3 receptor expressed in CHO cells by measuring calcium mobilization. The class given is functional, cell-based.
Test [6] deals with Muscarinic acetylcholine receptor M1 and M3 (Homo sapiens) (UniProt P20309+P11229). Description: Selectivity for cloned muscarinic M3 receptor over cloned muscarinic M1 receptor.
The species named for test [7] is Mus musculus. Put plainly: Effect on metacholine-induced bronchoconstriction in mouse assessed as bronchoprotection at 5 ug after 15 mins. The format is functional.
Test [8] is filed under the species Mus musculus. Description: Effect on metacholine-induced bronchoconstriction in mouse assessed as bronchoprotection at 5 ug after 24 hrs. The format is functional.

Each structure is given as a SMILES string.

Chain of Muscarinic acetylcholine receptor M3 (P20309 whole entry): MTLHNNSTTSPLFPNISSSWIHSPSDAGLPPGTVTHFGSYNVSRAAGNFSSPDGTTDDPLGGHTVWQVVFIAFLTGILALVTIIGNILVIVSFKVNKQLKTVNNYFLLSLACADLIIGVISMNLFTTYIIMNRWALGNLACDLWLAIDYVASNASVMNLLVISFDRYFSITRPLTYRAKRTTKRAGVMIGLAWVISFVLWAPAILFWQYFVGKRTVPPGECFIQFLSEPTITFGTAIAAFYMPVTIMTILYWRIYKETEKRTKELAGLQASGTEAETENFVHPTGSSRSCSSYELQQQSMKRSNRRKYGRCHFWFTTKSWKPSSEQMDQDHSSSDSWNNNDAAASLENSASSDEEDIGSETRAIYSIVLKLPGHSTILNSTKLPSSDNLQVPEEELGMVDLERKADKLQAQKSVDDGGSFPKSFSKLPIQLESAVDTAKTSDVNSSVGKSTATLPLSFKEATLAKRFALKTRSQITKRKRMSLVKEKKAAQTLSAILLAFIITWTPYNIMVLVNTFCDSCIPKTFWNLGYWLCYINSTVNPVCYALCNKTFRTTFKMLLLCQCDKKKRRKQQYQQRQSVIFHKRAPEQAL
Chain of Muscarinic acetylcholine receptor M1 and M3 (Homo sapiens) (P20309 whole entry, looked up, one chain of several): as the sequence (P20309 whole entry) above

In general, IC50 refers to the concentration that gives 50% inhibition. For the compound `C[N+]1(C)[C@@H]2CC[C@H]1C[C@H](OC(=O)N(Cc1ccccc1)c1cccs1)C2.[Br-]`, the IC50 in test [1] amounted to 2.7 nM; in test [3], 13.8 nM; in test [5] it was 3 nM. In addition, the Ratio IC50 amounted to 5.7 in test [2] and 0.2 in test [6]. Moreover, the Activity in the test listed under Mus musculus [4] turned out to be 80%; in the test listed under Mus musculus [7], 85%.
For the compound `C[N+]1(C)[C@@H]2CC[C@H]1C[C@H](OC(=O)N(Cc1cccs1)c1ccccc1)C2.[Br-]`, the IC50 turned out to be 2.4 nM in test [1], 12.5 nM in test [3] and 2.3 nM in test [5]. Further, the results for the Ratio IC50 in test [2] and in test [6] were 5.4 and 1, respectively. Besides, in the test listed under Mus musculus [7], the Activity amounted to 85%.
Consider `C[N+]1(C)[C@@H]2CC[C@H]1C[C@@H](OC(=O)N(Cc1ccsc1)c1ccccc1)C2.[Br-]`, for which the figures for the IC50 in test [1], in test [3] and in test [5] were 2.6 nM, 30.2 nM and 2.8 nM, respectively. The results for the Ratio IC50 in test [2] and in test [6] were 10.8 and 0.9, respectively. Also, in the test filed under Mus musculus [7], the Activity is reported as 85%.
For `C[N+]1(C)[C@@H]2CC[C@H]1C[C@H](OC(=O)N(Cc1ccccc1)c1ccccc1)C2.[Br-]`, the figures for the IC50 in test [1], in test [3] and in test [5] were 4.5 nM, 48 nM and 4.6 nM, respectively. The Ratio IC50 amounted to 10.4 in test [2] and 1 in test [6]. The Activity in the test filed under Mus musculus [7] stood at 85%.
With `C[N+]1(C)[C@@H]2CC[C@H]1C[C@@H](OC(=O)N(Cc1ccsc1)c1ccsc1)C2.[Br-]`, the values for the IC50 in test [1], in test [3] and in test [5] were 1.6 nM, 7.2 nM and 1 nM, respectively. Also, the Ratio IC50 in test [2] was found to be 7.2; in test [6], 1.6. Also, the Activity in the test listed under Mus musculus [7] came to 85%.
As for `C[N+]1(C)[C@@H]2CC[C@H]1C[C@H](OC(=O)N(Cc1ccccc1)c1ccsc1)C2.[Br-]`, the IC50 in test [1] was 2.1 nM; in test [3] it was 10.9 nM; in test [5], 2 nM. Besides, the Activity in the test filed under Mus musculus [8] was determined as 25%; in the test listed under Mus musculus [4], 80%; in the test filed under Mus musculus [7], 85%. Further, the figures for the Ratio IC50 in test [2] and in test [6] were 5.5 and 1, respectively.
Regarding `Cc1ccsc1CN(C(=O)O[C@H]1C[C@H]2CC[C@@H](C1)[N+]2(C)C)c1ccccc1`, the IC50 in test [1] is 3.8 nM; in test [3], 34.7 nM; in test [5], 6.4 nM. The Ratio IC50 in test [2] came out at 5.4; in test [6], 0.6.
